What was measured:
Format in all cases: functional
HT-29 = experiment: Cytotoxicity against Homo sapiens (human) HT-29 cells assessed as growth inhibition at 10 uM after 48 hr by coulter counter analysis; conditions: HT-29, 48 h, read-out: GI
BT-549 = experiment: Cytotoxicity against Homo sapiens (human) BT549 cells assessed as growth inhibition at 10 uM after 48 hr by coulter counter analysis; conditions: BT-549, 48 h, read-out: GI
K562 = experiment: Cytotoxicity against Homo sapiens (human) K562 cells assessed as growth inhibition at 10 uM after 48 hr by coulter counter analysis; conditions: K562, 48 h, read-out: GI
CAKI-1 = experiment: Cytotoxicity against Homo sapiens (human) Caki1 cells assessed as growth inhibition at 10 uM after 48 hr by coulter counter analysis; conditions: CAKI-1, 48 h, read-out: GI
HCC 2998 = experiment: Cytotoxicity against Homo sapiens (human) HCC2998 cells assessed as growth inhibition at 10 uM after 48 hr by coulter counter analysis; conditions: HCC 2998, 48 h, read-out: GI
OVCAR-8 = experiment: Cytotoxicity against Homo sapiens (human) OVCAR8 cells assessed as growth inhibition at 10 uM after 48 hr by coulter counter analysis; conditions: OVCAR-8, 48 h, read-out: GI
HOP-92 = experiment: Cytotoxicity against Homo sapiens (human) HOP92 cells assessed as growth inhibition at 10 uM after 48 hr by coulter counter analysis; conditions: HOP-92, 48 h, read-out: GI
MDA-MB-231 = experiment: Cytotoxicity against Homo sapiens (human) MDA-MB-231 cells assessed as growth inhibition at 10 uM after 48 hr by coulter counter analysis; conditions: MDA-MB-231, 48 h, read-out: GI
OVCAR-5 = experiment: Cytotoxicity against Homo sapiens (human) OVCAR5 cells assessed as growth inhibition at 10 uM after 48 hr by coulter counter analysis; conditions: OVCAR-5, 48 h, read-out: GI
[1] = Cytotoxicity against Homo sapiens (human) NCI-ADR-RES cells assessed as growth inhibition at 10 uM after 48 hr by coulter counter analysis; conditions: read-out: GI
SK-OV-3 = experiment: Cytotoxicity against Homo sapiens (human) SKOV3 cells assessed as growth inhibition at 10 uM after 48 hr by coulter counter analysis; conditions: SK-OV-3, 48 h, read-out: GI
PC-3 = experiment: Cytotoxicity against Homo sapiens (human) PC3 cells assessed as growth inhibition at 10 uM after 48 hr by coulter counter analysis; conditions: PC-3, 48 h, read-out: GI
SK-MEL-5 = experiment: Cytotoxicity against Homo sapiens (human) SK-MEL-5 cells assessed as growth inhibition at 10 uM after 48 hr by coulter counter analysis; conditions: SK-MEL-5, 48 h, read-out: GI
A498 = experiment: Cytotoxicity against Homo sapiens (human) A498 cells assessed as growth inhibition at 10 uM after 48 hr by coulter counter analysis; conditions: A498, 48 h, read-out: GI
Malme-3M = experiment: Cytotoxicity against Homo sapiens (human) MALME-3M cells assessed as growth inhibition at 10 uM after 48 hr by coulter counter analysis; conditions: read-out: GI
SK-MEL-2 = experiment: Cytotoxicity against Homo sapiens (human) SK-MEL-2 cells assessed as growth inhibition at 10 uM after 48 hr by coulter counter analysis; conditions: SK-MEL-2, 48 h, read-out: GI
MDA-MB-468 = experiment: Cytotoxicity against Homo sapiens (human) MDA-MB-468 cells assessed as growth inhibition at 10 uM after 48 hr by coulter counter analysis; conditions: MDA-MB-468, 48 h, read-out: GI
SF-539 = experiment: Cytotoxicity against Homo sapiens (human) SF539 cells assessed as growth inhibition at 10 uM after 48 hr by coulter counter analysis; conditions: SF-539, 48 h, read-out: GI
RXF 393 = experiment: Cytotoxicity against Homo sapiens (human) RXF393 cells assessed as growth inhibition at 10 uM after 48 hr by coulter counter analysis; conditions: RXF 393, 48 h, read-out: GI
CCRF-CEM = experiment: Cytotoxicity against Homo sapiens (human) CCRF-CEM cells assessed as growth inhibition at 10 uM after 48 hr by coulter counter analysis; conditions: read-out: GI
NCI-H226 = experiment: Cytotoxicity against Homo sapiens (human) NCI-H226 cells assessed as growth inhibition at 10 uM after 48 hr by coulter counter analysis; conditions: NCI-H226, 48 h, read-out: GI
COLO 205 = experiment: Cytotoxicity against Homo sapiens (human) COLO205 cells assessed as growth inhibition at 10 uM after 48 hr by coulter counter analysis; conditions: COLO 205, 48 h, read-out: GI
SF-268 = experiment: Cytotoxicity against Homo sapiens (human) SF268 cells assessed as growth inhibition at 10 uM after 48 hr by coulter counter analysis; conditions: SF-268, 48 h, read-out: GI
UACC-257 = experiment: Cytotoxicity against Homo sapiens (human) UACC257 cells assessed as growth inhibition at 10 uM after 48 hr by coulter counter analysis; conditions: UACC-257, 48 h, read-out: GI
EKVX = experiment: Cytotoxicity against Homo sapiens (human) EKVX cells assessed as growth inhibition at 10 uM after 48 hr by coulter counter analysis; conditions: read-out: GI
ACHN = experiment: Cytotoxicity against Homo sapiens (human) ACHN cells assessed as growth inhibition at 10 uM after 48 hr by coulter counter analysis; conditions: read-out: GI
SF-295 = experiment: Cytotoxicity against Homo sapiens (human) SF295 cells assessed as growth inhibition at 10 uM after 48 hr by coulter counter analysis; conditions: SF-295, 48 h, read-out: GI
HL-60(TB) = experiment: Cytotoxicity against Homo sapiens (human) HL-60(TB) cells assessed as growth inhibition at 10 uM after 48 hr by coulter counter analysis; conditions: HL-60, 48 h, read-out: GI
OVCAR-4 = experiment: Cytotoxicity against Homo sapiens (human) OVCAR4 cells assessed as growth inhibition at 10 uM after 48 hr by coulter counter analysis; conditions: OVCAR-4, 48 h, read-out: GI
HCT-116 = experiment: Cytotoxicity against Homo sapiens (human) HCT116 cells assessed as growth inhibition at 10 uM after 48 hr by coulter counter analysis; conditions: HCT-116, 48 h, read-out: GI
LOX IMVI = experiment: Cytotoxicity against Homo sapiens (human) LOXIMVI cells assessed as growth inhibition at 10 uM after 48 hr by coulter counter analysis; conditions: read-out: GI
SN12C = experiment: Cytotoxicity against Homo sapiens (human) SN12C cells assessed as growth inhibition at 10 uM after 48 hr by coulter counter analysis; conditions: read-out: GI
HCT-15 = experiment: Cytotoxicity against Homo sapiens (human) HCT15 cells assessed as growth inhibition at 10 uM after 48 hr by coulter counter analysis; conditions: HCT-15, 48 h, read-out: GI
Hs-578T = experiment: Cytotoxicity against Homo sapiens (human) Hs578T cells assessed as growth inhibition at 10 uM after 48 hr by coulter counter analysis; conditions: read-out: GI

Row | SMILES | inhibition of growth at 10 µM (HT-29) [%] | inhibition of growth at 10 µM (BT-549) [%] | inhibition of growth at 10 µM (K562) [%] | inhibition of growth at 10 µM (CAKI-1) [%] | inhibition of growth at 10 µM (HCC 2998) [%] | inhibition of growth at 10 µM (OVCAR-8) [%] | inhibition of growth at 10 µM (HOP-92) [%] | inhibition of growth at 10 µM (MDA-MB-231) [%] | inhibition of growth at 10 µM (OVCAR-5) [%] | inhibition of growth at 10 µM [1] [%] | inhibition of growth at 10 µM (SK-OV-3) [%] | inhibition of growth at 10 µM (PC-3) [%] | inhibition of growth at 10 µM (SK-MEL-5) [%] | inhibition of growth at 10 µM (A498) [%] | inhibition of growth at 10 µM (Malme-3M) [%] | inhibition of growth at 10 µM (SK-MEL-2) [%] | inhibition of growth at 10 µM (MDA-MB-468) [%] | inhibition of growth at 10 µM (SF-539) [%] | inhibition of growth at 10 µM (RXF 393) [%] | inhibition of growth at 10 µM (CCRF-CEM) [%] | other results
1 | O=c1[nH]c(-c2ccccc2)nc2c1C(c1ccc(Cl)cc1)C1=C(CCCC1)N2 (stereo not drawn) | < 10 | < 10 | 11.2 | < 10 | < 10 | < 10 | 12 | < 10 | < 10 | < 10 | < 10 | < 10 | 17.8 | 11.4 | < 10 | < 10 | < 10 | < 10 | < 10 | < 10 | inhibition of growth at 10 µM (NCI-H226): 12.3%; inhibition of growth at 10 µM (COLO 205): < 10%; inhibition of growth at 10 µM (SF-268): < 10%; inhibition of growth at 10 µM (UACC-257): < 10%; inhibition of growth at 10 µM (EKVX): < 10%; inhibition of growth at 10 µM (ACHN): < 10%; inhibition of growth at 10 µM (SF-295): < 10%; inhibition of growth at 10 µM (HL-60(TB)): < 10%; inhibition of growth at 10 µM (OVCAR-4): < 10%; inhibition of growth at 10 µM (HCT-116): < 10%; inhibition of growth at 10 µM (LOX IMVI): 11.2%; inhibition of growth at 10 µM (SN12C): < 10%; inhibition of growth at 10 µM (HCT-15): < 10%; inhibition of growth at 10 µM (Hs-578T): < 10%
2 | CN(C)c1ccc(-c2nc3c(c(=O)[nH]2)C(c2ccc(Cl)cc2)C2=C(CCCC2)N3)cc1 (stereo not drawn) | < 10 | < 10 | < 10 | < 10 | < 10 | < 10 | 35.9 | 12 | < 10 | < 10 | < 10 | < 10 | < 10 | < 10 | < 10 | 10 | < 10 | < 10 | < 10 | < 10 | inhibition of growth at 10 µM (NCI-H226): < 10%; inhibition of growth at 10 µM (COLO 205): 10.2%; inhibition of growth at 10 µM (SF-268): < 10%; inhibition of growth at 10 µM (UACC-257): < 10%; inhibition of growth at 10 µM (EKVX): < 10%; inhibition of growth at 10 µM (ACHN): 13.1%; inhibition of growth at 10 µM (SF-295): < 10%; inhibition of growth at 10 µM (HL-60(TB)): < 10%; inhibition of growth at 10 µM (OVCAR-4): < 10%; inhibition of growth at 10 µM (HCT-116): < 10%; inhibition of growth at 10 µM (LOX IMVI): < 10%; inhibition of growth at 10 µM (SN12C): 14.6%; inhibition of growth at 10 µM (HCT-15): < 10%; inhibition of growth at 10 µM (Hs-578T): < 10%
